From patent US11566028B2, “Bicyclic heterocycles as FGFR inhibitors” (Incyte Corporation, priority 2019, dated 2023)
Like-named read-outs stand apart in the source and are kept apart here.

Experiments:
Format in all cases: biochemical
[1] = target: wild-type un-phosphorylated FGFR3 protein (Homo sapiens (Human), UniProt P22607); assay: FGFR Enzymatic Assay (FRET peptide phosphorylation), FGFR3; conditions: pre-incubated for 4 hours
FGFR2 = FGFR2 (Homo sapiens (Human), UniProt P21802); assay: FGFR Enzymatic Assay (FRET peptide phosphorylation), FGFR2
Sequence of FGFR2 (P21802 22-821): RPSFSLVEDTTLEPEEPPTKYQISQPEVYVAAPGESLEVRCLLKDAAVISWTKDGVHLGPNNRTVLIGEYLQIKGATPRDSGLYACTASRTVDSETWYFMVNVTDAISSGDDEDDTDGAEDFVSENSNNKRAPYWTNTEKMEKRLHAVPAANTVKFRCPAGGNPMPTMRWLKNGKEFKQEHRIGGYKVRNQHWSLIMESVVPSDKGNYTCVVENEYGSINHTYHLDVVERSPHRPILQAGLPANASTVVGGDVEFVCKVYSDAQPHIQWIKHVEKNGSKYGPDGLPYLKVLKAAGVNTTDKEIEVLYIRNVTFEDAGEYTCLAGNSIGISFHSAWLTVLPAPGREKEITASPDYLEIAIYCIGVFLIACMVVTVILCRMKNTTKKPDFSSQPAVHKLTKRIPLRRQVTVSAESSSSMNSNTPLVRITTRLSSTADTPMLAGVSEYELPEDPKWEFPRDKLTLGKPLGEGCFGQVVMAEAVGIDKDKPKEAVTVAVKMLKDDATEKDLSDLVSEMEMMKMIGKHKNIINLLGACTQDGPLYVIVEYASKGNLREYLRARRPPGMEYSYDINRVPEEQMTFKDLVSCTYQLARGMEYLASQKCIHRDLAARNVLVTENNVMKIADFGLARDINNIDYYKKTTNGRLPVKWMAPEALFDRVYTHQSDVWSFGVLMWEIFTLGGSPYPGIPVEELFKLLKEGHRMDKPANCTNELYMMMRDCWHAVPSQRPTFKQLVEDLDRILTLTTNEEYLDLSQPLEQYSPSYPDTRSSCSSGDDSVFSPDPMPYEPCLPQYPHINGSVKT

FGFR1 = FGFR1 (Homo sapiens (Human), UniProt P11362); assay: FGFR Enzymatic Assay (FRET peptide phosphorylation), FGFR1; conditions: pre-incubated for 4 hours
Sequence of FGFR1 (P11362 22-822): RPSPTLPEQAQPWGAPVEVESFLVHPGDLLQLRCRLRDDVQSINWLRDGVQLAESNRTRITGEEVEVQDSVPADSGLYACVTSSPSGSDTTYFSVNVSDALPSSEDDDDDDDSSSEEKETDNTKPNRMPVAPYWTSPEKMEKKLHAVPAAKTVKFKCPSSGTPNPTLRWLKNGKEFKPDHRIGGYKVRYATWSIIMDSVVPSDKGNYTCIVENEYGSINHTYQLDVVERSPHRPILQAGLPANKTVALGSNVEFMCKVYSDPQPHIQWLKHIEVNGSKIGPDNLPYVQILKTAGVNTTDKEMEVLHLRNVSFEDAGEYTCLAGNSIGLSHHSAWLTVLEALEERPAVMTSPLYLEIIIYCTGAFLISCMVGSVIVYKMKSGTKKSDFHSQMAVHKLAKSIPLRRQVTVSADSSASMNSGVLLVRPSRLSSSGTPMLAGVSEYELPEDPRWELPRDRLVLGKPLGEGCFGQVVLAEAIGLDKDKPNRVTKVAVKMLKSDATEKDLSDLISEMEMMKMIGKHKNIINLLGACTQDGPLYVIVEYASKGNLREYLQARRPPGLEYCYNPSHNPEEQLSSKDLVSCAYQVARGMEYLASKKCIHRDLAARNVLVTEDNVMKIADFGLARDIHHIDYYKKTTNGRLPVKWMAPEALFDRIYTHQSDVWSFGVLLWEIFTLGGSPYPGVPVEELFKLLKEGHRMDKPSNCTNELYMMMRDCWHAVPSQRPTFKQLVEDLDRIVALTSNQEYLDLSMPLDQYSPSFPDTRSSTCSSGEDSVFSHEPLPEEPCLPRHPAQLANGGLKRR

Sequence of wild-type un-phosphorylated FGFR3 protein (P22607 23-806): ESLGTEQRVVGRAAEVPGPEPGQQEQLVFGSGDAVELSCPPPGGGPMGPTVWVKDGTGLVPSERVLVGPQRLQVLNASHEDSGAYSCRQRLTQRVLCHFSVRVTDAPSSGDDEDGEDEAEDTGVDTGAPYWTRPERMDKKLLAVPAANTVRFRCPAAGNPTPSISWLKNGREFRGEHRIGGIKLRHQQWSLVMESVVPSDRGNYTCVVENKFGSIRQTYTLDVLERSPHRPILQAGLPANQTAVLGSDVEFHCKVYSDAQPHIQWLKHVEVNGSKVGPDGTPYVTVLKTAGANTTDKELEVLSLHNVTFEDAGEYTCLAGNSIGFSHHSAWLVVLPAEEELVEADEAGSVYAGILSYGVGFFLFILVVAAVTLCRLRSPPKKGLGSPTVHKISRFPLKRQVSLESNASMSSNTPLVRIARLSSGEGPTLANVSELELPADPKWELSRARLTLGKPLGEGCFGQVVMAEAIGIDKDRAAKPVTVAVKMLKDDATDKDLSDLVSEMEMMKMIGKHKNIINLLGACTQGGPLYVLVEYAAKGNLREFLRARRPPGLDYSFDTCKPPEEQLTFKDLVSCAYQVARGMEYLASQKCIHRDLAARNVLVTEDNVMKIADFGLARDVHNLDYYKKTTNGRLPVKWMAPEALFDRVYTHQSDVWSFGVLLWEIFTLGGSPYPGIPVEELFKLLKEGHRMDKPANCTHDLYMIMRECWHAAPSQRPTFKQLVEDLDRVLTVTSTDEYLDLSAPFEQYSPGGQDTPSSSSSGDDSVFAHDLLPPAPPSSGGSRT

IC50 [1] [nM]	IC50 (FGFR1) [nM]	IC50 (FGFR2; pre-incubated for 4 hours) [nM]	SMILES	IC50 (FGFR2) [nM]
≥ 200	≥ 200	30 to 200	CNC(=O)c1cc(-c2cnn3cc(-c4cnn(C5CCC5)c4)c(O[C@H]4CCOC4)nc23)cc(S(C)(=O)=O)c1 [Example 32, (S)-3-(6-(1-Cyclobutyl-1H-pyrazol-4-yl)-5-((tetrahydrofuran-3-yl)oxy)pyrazolo[1,5-a]pyrimidin-3-yl)-N-methyl-5-(methylsulfonyl)benzamide]	–
< 10	10 to 30	< 10	CNC(=O)c1cncc(-c2cnn3cc(-c4cnn(C5CCC5)c4)c(O[C@H]4CCOC4)nc23)c1 [Example 22, (S)-5-(6-(1-Cyclobutyl-1H-pyrazol-4-yl)-5-((tetrahydrofuran-3-yl)oxy)pyrazolo[1,5-a]pyrimidin-3-yl)-N-methylnicotinamide]	–
< 10	30 to 200	< 10	[2H]C([2H])([2H])NC(=O)c1cc(C)c(F)c(-c2cnn3cc(-c4cnc(C5CCN(C(C)C)CC5)o4)c(N[C@H]4CCOC4)nc23)c1 [Example 68, (S)-4-Fluoro-3-(6-(2-(1-isopropylpiperidin-4-yl)oxazol-5-yl)-5-((tetrahydrofuran-3-yl)amino)pyrazolo[1,5-a]pyrimidin-3-yl)-5-methyl-N-(methyl-d3)benzamide]	–
< 10	10 to 30	< 10	CNC(=O)c1cc(-c2cnn3cc(-c4cnn(C)c4)c(N[C@H]4CCOC4)nc23)c(F)c(C(F)F)c1 [Example 47, (S)-3-(Difluoromethyl)-4-fluoro-N-methyl-5-(6-(1-methyl-1H-pyrazol-4-yl)-5-((tetrahydrofuran-3-yl)amino)pyrazolo[1,5-a]pyrimidin-3-yl)benzamide]	–
< 10	10 to 30	< 10	CNC(=O)c1cc(C#N)cc(-c2cnn3cc(-c4cnn(C)c4)c(O[C@H]4CCOC4)nc23)c1 [Example 6, (S)-3-Cyano-N-methyl-5-(6-(1-methyl-1H-pyrazol-4-yl)-5-((tetrahydrofuran-3-yl)oxy)pyrazolo[1,5-a]pyrimidin-3-yl)benzamide]	–
< 10	< 10	< 10	CNC(=O)c1cc(F)c(F)c(-c2cnn3cc(-c4cnn(C5CN(C)C5)c4)c(O[C@H]4CCOC4)nc23)c1 [Example 17, (S)-3,4-Difluoro-N-methyl-5-(6-(1-(1-methylazetidin-3-yl)-1H-pyrazol-4-yl)-5-((tetrahydrofuran-3-yl)oxy)pyrazolo[1,5-a]pyrimidin-3-yl)benzamide]	–
< 10	10 to 30	< 10	CNC(=O)c1cc(-c2cnn3cc(-c4cnn(CCOC)c4)c(N[C@H]4CCOC4)nc23)c(F)c(C(F)F)c1 [Example 50, (S)-3-(Difluoromethyl)-4-fluoro-5-(6-(1-(2-methoxyethyl)-1H-pyrazol-4-yl)-5-((tetrahydrofuran-3-yl)amino)pyrazolo[1,5-a]pyrimidin-3-yl)-N-methylbenzamide]	–
< 10	< 10	< 10	CNC(=O)c1cc(F)c(F)c(-c2cnn3cc(-c4cnn(C5CCN(C)CC5)c4)c(O[C@H]4CCOC4)nc23)c1 [Example 11, (S)-3,4-Difluoro-N-methyl-5-(6-(1-(1-methylpiperidin-4-yl)-1H-pyrazol-4-yl)-5-((tetrahydrofuran-3-yl)oxy)pyrazolo[1,5-a]pyrimidin-3-yl)benzamide]	–
< 10	30 to 200	< 10	CNC(=O)c1cc(C)c(F)c(-c2cnn3cc(-c4cnc(C5(F)CCN(C)CC5)o4)c(N[C@H]4CCOC4)nc23)c1 [Example 69, (S)-4-Fluoro-3-(6-(2-(4-fluoro-1-methylpiperidin-4-yl)oxazol-5-yl)-5-((tetrahydrofuran-3-yl)amino)pyrazolo[1,5-a]pyrimidin-3-yl)-N,5-dimethylbenzamide]	–
< 10	30 to 200	–	CNC(=O)c1cncc(-c2cnn3cc(-c4cnn(C(C)C)c4)c(N[C@H]4CCOC4)nc23)c1 [Example 10, (S)-5-(6-(1-Isopropyl-1H-pyrazol-4-yl)-5-((tetrahydrofuran-3-yl)amino)pyrazolo[1,5-a]pyrimidin-3-yl)-N-methylnicotinamide]	–
–	≥ 200	10 to 30	CNC(=O)c1cc(C)c(F)c(-c2cnn3cc(-c4ccnnc4)c(N[C@H]4CCOC4)nc23)c1 [Example 44, (S)-4-Fluoro-N,3-dimethyl-5-(6-(pyridazin-4-yl)-5-((tetrahydrofuran-3-yl)amino)pyrazolo[1,5-a]pyrimidin-3-yl)benzamide]	–
< 10	30 to 200	–	CNC(=O)c1cncc(-c2cnn3cc(-c4cnn(C)c4)c(N[C@H]4CCOC4)nc23)c1 [Example 7, (S)—N-Methyl-5-(6-(1-methyl-1H-pyrazol-4-yl)-5-((tetrahydrofuran-3-yl)amino)pyrazolo[1,5-a]pyrimidin-3-yl)nicotinamide]	–
–	≥ 200	10 to 30	CNC(=O)c1cc(-c2cnn3cc(-c4cnc(NC)c(C)c4)c(O[C@H]4CCOC4)nc23)c(F)c(C(F)F)c1 [Example 24, (S)-3-(Difluoromethyl)-4-fluoro-N-methyl-5-(6-(5-methyl-6-(methylamino)pyridin-3-yl)-5-((tetrahydrofuran-3-yl)oxy)pyrazolo[1,5-a]pyrimidin-3-yl)benzamide]	–
< 10	30 to 200	–	CNC(=O)c1cc(C#N)cc(-c2cnn3cc(-c4cnn(C)c4)c(N[C@H]4CCOC4)nc23)c1 [Example 8, (S)-3-Cyano-N-methyl-5-(6-(1-methyl-1H-pyrazol-4-yl)-5-((tetrahydrofuran-3-yl)amino)pyrazolo[1,5-a]pyrimidin-3-yl)benzamide]	–
–	≥ 200	30 to 200	CNC(=O)c1cc(C#N)cc(-c2cnn3cc(-c4cncc(C)c4)c(O[C@H]4CCOC4)nc23)c1 [Example 29, (S)-3-Cyano-N-methyl-5-(6-(5-methylpyridin-3-yl)-5-((tetrahydrofuran-3-yl)oxy)pyrazolo[1,5-a]pyrimidin-3-yl)benzamide]	–
–	≥ 200	10 to 30	CNC(=O)c1cc(C#N)cc(-c2cnn3cc(-c4cccnc4)c(O[C@H]4CCOC4)nc23)c1 [Example 27, (S)-3-Cyano-N-methyl-5-(6-(pyridin-3-yl)-5-((tetrahydrofuran-3-yl)oxy)pyrazolo[1,5-a]pyrimidin-3-yl)benzamide]	–

SMILES	IC50 [1] [nM]	IC50 (FGFR1) [nM]	IC50 (FGFR2; pre-incubated for 4 hours) [nM]	IC50 (FGFR2) [nM]
CNC(=O)c1cc(C)c(F)c(-c2cnn3cc(-c4cnn(CCC#N)c4)c(N[C@H]4CCOC4)nc23)c1 [Example 37, (S)-3-(6-(1-(2-Cyanoethyl)-1H-pyrazol-4-y1)-5-((tetrahydrofuran-3-yl)amino)pyrazolo[1,5-a]pyrimidin-3-y1)-4-fluoro-N,5-dimethylbenzamide]	< 10	10 to 30	–	< 10
CNC(=O)c1cc(F)c(F)c(-c2cnn3cc(-c4ccc(C(C)(C)O)nc4)c(N[C@H]4CCOC4)nc23)c1 [Example 57, (S)-3,4-Difluoro-5-(6-(6-(2-hydroxypropan-2-yl)pyridin-3-y1)-5-((tetrahydrofuran-3-yl)amino)pyrazolo[1,5-a]pyrimidin-3-y1)-N-methylbenzamide]	< 10	30 to 200	–	< 10
